PMC8578629, “Photoactivated cell-killing amino-based flavylium compounds” (Scientific Reports, 2021)
Where two headings read alike, the source gives them in different places.

What was measured:
Type in all cases: cell-based, human
HaCaT cells [1] = test: Cellular photoactivation assay (white light or dark, Alamar Blue); settings: for Dark cytotoxicity to HaCaT cells (in words) / Photoactivation, dark versus white light (in words) / IC50: 4 h incubation; for Dark cytotoxicity to HaCaT cells (in words) / Photoactivation, dark versus white light (in words): 6.25–100 μM applied; for Photoactivation, dark versus white light (in words): white light 6.6 J cm^−2; for IC50: Homo sapiens, HaCaT, concentrations corrected for uptake
Description: A white light LED homemade device prototype has 96 LEDs appropriately arranged on a plate of 13 cm length × 8 cm width, with a distance from the microplate surface of 8 cm. The prototype has an irradiance of 21 W m^−2 and a wavelength range of 408–707 nm (Fig. S4).
For the cellular photoactivation assays, the white light source of 21 W m^−2 was used. Briefly, cells were seed at a density of 4 × 10^4 cells/mL onto 96 –well plates and after 24 h the compounds were added to the plates in different concentrations (6.25–100 μM) and incubated for a period of 4 h at 37 °C in an atmosphere of 5% CO2 and in the presence of DMEM with 2% FBS. After this period, the medium with the compounds was removed and fresh medium (DMEM with 2% FBS without phenol red (DMEM_2% FBS_w/o_PR) was added to cells. Following this procedure, cells were submitted to light irradiation, the selected light source at a height of 8 cm, in a chamber designed to ensure the same light quantity for each well during the treatment. Cells were irradiated for 10 min at an intensity of 50%, at room temperature (making a total energy exposition of 6.6 J cm^−2). The dark treatment was prepared by placing the plates for 10 min in a dark box at room temperature. After this, the 96 well plates were placed in an incubator at 37 °C in an atmosphere of 5% CO2 for 24 h. Then, to determine cell survival the Alamar Blue assay was performed as follows: after the 24 h, 20 μL of a solution of Resazurin (0.15 mg mL^−1 in PBS filtered in 0.22 μm filters) were added to each well (making a total volume of 120 μL per well), and the plates were incubated between 4–6 h (until the development of visible color change from violet to pink). The fluorescence intensity of each well was then determined at 560/590 nm (ex/em) (FlexStation 3 Multi-Mode Microplate Reader).

HaCaT cells [2] = test: Photodynamic therapy mechanism determination with type I/type II quenchers; settings: compound 50 μΜ, light 6.6 J cm^−2
Description: For the determination of the photoactivation mechanism that yielded to cell death, cells were seeded as previously described for the photoactivation assays. […] The incubation proceeded for a time period of 4 h. After this, solutions containing the compounds were removed from cells and fresh medium containing the different quenchers were added to cells. Cells were irradiated for 10 min at an intensity of 50%, at room temperature (making a total energy exposition of 6.6 J cm^−2). The dark treatment was done by placing the plates for 10 min in a dark box at room temperature. After this, the medium was removed and replaced by fresh medium without any additive. The 96 well plates were then placed in an incubator at 37 °C in an atmosphere of 5% CO2 for 24 h. Finally, the Alamar Blue assay was performed to determine cell survival as previously described.

HaCaT cells [3] = test: Reactive oxygen species production (DCF-DA); settings: 25 μM, 6.6 J cm^−2, versus control cells
Description: Cells reactive oxygen species (ROS) production was evaluated following the standard method. Briefly, cells were seed at a density of 4 × 10^4 cells/mL onto 96 well plates and after 24 h the compounds were added at 25 μM (non-toxic concentration) and the same previous procedure for the photoactivation assays was followed. After that, cells were washed twice in Hank’s Buffered Saline Solution (HBSS) and incubated with 100 μL of 50 μM 2′,7′-dichlorodihydrofluorescein diacetate (DCF‐DA) for 30 min in the same previous conditions. For positive control, cells were treated with 100 μM H2O2 for 30 min prior to the addition of DCF-DA. Cells were then washed twice with HBSS and incubated with fresh DMEM medium for 24 h. After this period, the fluorescence intensity at […] (ex/em) was determined in a FlexStation 3 Multi-Mode Microplate Reader.

[4] = 4 h, kept in the dark, read-out: IC50 of HaCaT cell survival, DARK
[5] = white light 6.6 J cm^−2 (10 min), read-out: IC50 of HaCaT cell survival, LIGHT

Compound	Dark cytotoxicity to HaCaT cells (in words) (HaCaT cells [1])	Photoactivation, dark versus white light (in words) (HaCaT cells [1])	IC50 (HaCaT cells [1]; [4])	IC50 (HaCaT cells [1]; [5])	Increase of cell survival with quencher (HaCaT cells [2]; D-mannitol 10 mM (type I))	Increase of cell survival with quencher (HaCaT cells [2]; L-cysteine 10 mM (type I))	Increase of cell survival with quencher (HaCaT cells [2]; L-histidine 10 mM (type II))	Increase of cell survival with quencher (HaCaT cells [2]; sodium azide 10 mM (type II))	ROS production upon white light irradiation (in words) (HaCaT cells [3])	Cell survival, minimum (HaCaT cells [1]; white light irradiation, highest concentration applied)
CCN(CC)c1ccc2ccc(-c3ccc(N)cc3)[o+]c2c1 [7NEt24′NH2, 4′-amino-7-diethylamino-benzopyrylium]	significant decrease of cell survival	potential photo-activation	3000 ± 734 nM	1530 ± 81 nM	14%	27%	33%	31%	positive modulation of ROS production	–
C=CC1=C(C)c2cc3[nH]c(cc4nc(cc5[nH]c(cc1n2)c(C)c5CCC(=O)O)C(CCC(=O)O)=C4C)c(C)c3C=C [PpIX, protoporphyrin IX, reference compound]	no cytotoxic effects in dark conditions	effective photoactivation from the three higher concentrations	–	300 nM	27%	26%	42%	37%	no significant differences	–
CCN(CC)c1ccc2ccc(-c3ccc(N(C)C)cc3)[o+]c2c1 [7NEt24′NMe2, 7-diethylamino-4′-dimethylamino-benzopyrylium]	absence of dark cytotoxicity	photoactivation even for low concentrations	–	905 ± 231 nM	6%	13%	44%	27%	positive modulation of ROS production	38%
CCN(CC)c1ccc2ccc(/C=C/c3ccc(N(C)C)cc3)[o+]c2c1 [7NEt2st4′NMe2, 7-(diethylamino)-2-(4′-dimethylaminostyryl)-benzopyrylium]	significant dark cytotoxicity	significant photoactivation was found for the last four concentrations	5110 ± 196 nM	1080 ± 130 nM	22%	16%	46%	31%	positive modulation of ROS production	–
